In the experiment the target is Platelet-activating factor receptor (Homo sapiens) (UniProt P25105). The experiment is described as follows: Antagonist activity at PAFR in human KB cells assessed as inhibition of cPAF induced IL-8 release at 10 to 25 uM preincubated for 24 hrs followed by cPAF stimulation and measured after 6 hrs by ELISA method. The following applies: filed as antagonist, dose 10-25 µM, time 30.0 hrs. Type of experiment: functional, cell-based. On the technique in general: An ELISA detects its analyte on a solid surface through an enzyme-linked reagent.

The values that follow come from ChEMBL document CHEMBL5321267, “Phomactinine, the First Nitrogen-Bearing Phomactin, Produced by Biatriospora sp. CBMAI 1333” (J Nat Prod, 2023).

The source made the active and inactive calls. No cut-off for these calls is given here.

Platelet-activating factor receptor (Homo sapiens), sequence (P25105 whole entry): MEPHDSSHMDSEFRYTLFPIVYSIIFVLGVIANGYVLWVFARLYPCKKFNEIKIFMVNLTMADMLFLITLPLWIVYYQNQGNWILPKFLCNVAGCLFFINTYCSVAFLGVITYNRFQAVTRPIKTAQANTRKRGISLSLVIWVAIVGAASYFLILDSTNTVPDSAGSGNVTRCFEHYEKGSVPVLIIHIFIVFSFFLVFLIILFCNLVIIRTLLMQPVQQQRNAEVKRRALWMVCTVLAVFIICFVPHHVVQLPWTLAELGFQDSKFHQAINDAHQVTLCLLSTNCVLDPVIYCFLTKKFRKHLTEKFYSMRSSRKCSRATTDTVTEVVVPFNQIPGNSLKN

Take `C/C1=C\CC[C@@]2(C)O[C@@H]2[C@@]23C(=O)NC=C2[C@@](C)(CC1)[C@H](C)C[C@@H]3O`: the inhibition entry is “Active”.
